Counter-ions that a name gives are not always drawn. Active and inactive are the calls of the source. The rule behind the calls is not given here.
What was measured:
HCT-116 = assay: Cytotoxicity against human HCT116 cells after 2 days; assay type: functional, cell-based; conditions: HCT-116, 48 h
HL-60 = assay: Cytotoxicity against human HL60 cells after 2 days; assay type: functional, cell-based; conditions: HL-60, 48 h
DU-145 = assay: Cytotoxicity against human DU145 cells after 2 days; assay type: functional, cell-based; conditions: DU-145, 48 h
[1] = biological target: DNA topoisomerase 2-alpha (Homo sapiens) (UniProt P11388); assay: Inhibition of human topoisomerase 2alpha-mediated relaxation of supercoiled pBR322 DNA at 20 uM after 30 mins using ethidium bromide staining by transillumination analysis
HeLa = assay: Cytotoxicity against human HeLa cells after 2 days; conditions: 48 h
[2] = biological target: DNA topoisomerase 2-alpha (Homo sapiens) (UniProt P11388); assay: Inhibition of human topoisomerase 2alpha-mediated relaxation of supercoiled pBR322 DNA at 10 uM after 30 mins using ethidium bromide staining by transillumination analysis
MDA-MB-231 = assay: Cytotoxicity against human MDA-MB-231 cells after 2 days; conditions: MDA-MB-231, 48 h
[3] = biological target: DNA topoisomerase 2-alpha (Homo sapiens) (UniProt P11388); assay: Inhibition of human topoisomerase 2alpha-mediated relaxation of supercoiled pBR322 DNA at 100 uM after 30 mins using ethidium bromide staining by transillumination analysis
[4] = biological target: T1, DNA topoisomerase 1 (Homo sapiens) (UniProt P11387); assay: Inhibition of human recombinant topoisomerase 1-mediated relaxation of supercoiled pBR322 DNA at 20 uM after 30 mins using ethidium bromide staining by transillumination analysis
T1 sequence (whole entry): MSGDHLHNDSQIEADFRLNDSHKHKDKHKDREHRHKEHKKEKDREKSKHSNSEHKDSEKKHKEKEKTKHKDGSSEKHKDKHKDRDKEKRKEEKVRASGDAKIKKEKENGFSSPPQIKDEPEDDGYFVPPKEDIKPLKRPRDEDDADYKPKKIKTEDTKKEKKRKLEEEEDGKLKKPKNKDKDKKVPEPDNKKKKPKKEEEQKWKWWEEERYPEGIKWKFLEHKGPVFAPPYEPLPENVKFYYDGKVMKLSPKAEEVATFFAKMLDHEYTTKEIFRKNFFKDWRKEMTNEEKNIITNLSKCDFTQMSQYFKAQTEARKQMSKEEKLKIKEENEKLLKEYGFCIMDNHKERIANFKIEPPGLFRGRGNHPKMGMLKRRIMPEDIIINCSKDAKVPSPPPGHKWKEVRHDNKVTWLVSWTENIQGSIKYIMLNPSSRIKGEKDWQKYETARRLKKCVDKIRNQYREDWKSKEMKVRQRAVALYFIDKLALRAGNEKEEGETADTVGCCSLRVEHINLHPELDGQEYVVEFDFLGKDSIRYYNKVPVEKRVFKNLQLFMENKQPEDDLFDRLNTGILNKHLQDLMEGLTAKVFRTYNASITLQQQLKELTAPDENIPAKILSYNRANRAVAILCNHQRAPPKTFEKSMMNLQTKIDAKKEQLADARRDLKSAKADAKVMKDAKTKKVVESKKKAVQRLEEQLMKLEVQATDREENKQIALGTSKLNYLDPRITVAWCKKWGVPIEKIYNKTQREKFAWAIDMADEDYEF

[5] = biological target: DNA topoisomerase 2-alpha (Homo sapiens) (UniProt P11388); assay: Inhibition of human topoisomerase 2alpha-mediated ATP hydrolysis at 400 uM after 30 mins by malachite green ATPase assay
[6] = biological target: DNA topoisomerase 2-alpha (Homo sapiens) (UniProt P11388); assay: Inhibition of human topoisomerase 2alpha-mediated relaxation of pUC18 DNA at 400 uM after 30 mins by malachite green ATPase assay in presence of 1 to 4 mM of ATP

DNA topoisomerase 2-alpha (Homo sapiens), sequence (P11388 whole entry): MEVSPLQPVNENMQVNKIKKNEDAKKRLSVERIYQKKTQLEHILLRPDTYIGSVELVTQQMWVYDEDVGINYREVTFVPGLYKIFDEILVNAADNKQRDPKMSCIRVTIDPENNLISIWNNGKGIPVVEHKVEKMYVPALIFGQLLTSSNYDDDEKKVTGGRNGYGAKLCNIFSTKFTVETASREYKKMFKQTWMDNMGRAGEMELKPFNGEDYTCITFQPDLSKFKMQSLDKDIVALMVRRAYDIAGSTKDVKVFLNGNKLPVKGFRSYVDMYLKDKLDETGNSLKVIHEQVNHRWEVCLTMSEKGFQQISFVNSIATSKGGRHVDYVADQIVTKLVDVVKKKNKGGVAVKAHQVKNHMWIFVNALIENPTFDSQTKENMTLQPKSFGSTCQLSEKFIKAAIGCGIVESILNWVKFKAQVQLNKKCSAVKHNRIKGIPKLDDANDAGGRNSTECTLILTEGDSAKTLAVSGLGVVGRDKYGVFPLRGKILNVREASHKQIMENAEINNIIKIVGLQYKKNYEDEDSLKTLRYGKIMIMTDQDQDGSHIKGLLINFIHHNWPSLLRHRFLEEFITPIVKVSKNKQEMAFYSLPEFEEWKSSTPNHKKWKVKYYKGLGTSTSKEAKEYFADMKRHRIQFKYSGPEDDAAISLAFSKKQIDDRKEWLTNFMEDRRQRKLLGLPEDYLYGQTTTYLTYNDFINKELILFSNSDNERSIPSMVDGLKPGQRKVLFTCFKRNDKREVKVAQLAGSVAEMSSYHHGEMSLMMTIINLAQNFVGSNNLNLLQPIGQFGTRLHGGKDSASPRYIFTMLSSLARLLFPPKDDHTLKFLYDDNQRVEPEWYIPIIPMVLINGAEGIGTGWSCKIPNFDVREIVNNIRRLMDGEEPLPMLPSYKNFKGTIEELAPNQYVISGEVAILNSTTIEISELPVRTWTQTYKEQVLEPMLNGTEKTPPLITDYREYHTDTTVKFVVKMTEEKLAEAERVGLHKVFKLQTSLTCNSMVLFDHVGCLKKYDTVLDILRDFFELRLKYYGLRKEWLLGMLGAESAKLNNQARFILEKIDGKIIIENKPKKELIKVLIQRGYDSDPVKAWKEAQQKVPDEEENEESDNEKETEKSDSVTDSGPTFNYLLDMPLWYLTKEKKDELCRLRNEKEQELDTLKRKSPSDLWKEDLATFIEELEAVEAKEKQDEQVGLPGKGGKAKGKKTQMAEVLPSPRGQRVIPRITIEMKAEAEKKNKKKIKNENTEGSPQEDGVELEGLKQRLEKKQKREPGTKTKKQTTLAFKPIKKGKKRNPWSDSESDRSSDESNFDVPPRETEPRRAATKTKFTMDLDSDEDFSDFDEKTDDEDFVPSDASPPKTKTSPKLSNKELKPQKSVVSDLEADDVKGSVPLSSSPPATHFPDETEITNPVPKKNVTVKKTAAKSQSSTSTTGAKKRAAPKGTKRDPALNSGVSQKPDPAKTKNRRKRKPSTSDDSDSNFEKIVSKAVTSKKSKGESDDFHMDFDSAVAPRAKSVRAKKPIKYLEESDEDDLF

## COc1cccc2c1C(=O)c1c(O)c3c(c(O)c1C2=O)C[C@@](O)(C(=O)CO)C[C@@H]3O[C@H]1C[C@H](N)[C@H](O)[C@H](C)O1 [DOXORUBICIN HYDROCHLORIDE]
HCT-116
  IC50: 6.81 µM
HL-60
  IC50: 0.32 µM
DU-145
  IC50: 2.47 µM

## O=c1c2ccccc2oc2cc(OCC(O)CNCCCO)cc(O)c12 (centres undefined)
HCT-116
  IC50: 31.3 µM
[1]
  inhibition: 62.8%
HeLa
  IC50: 19.2 µM
[2]
  inhibition: 38.7%
HL-60
  IC50: 8.87 µM
MDA-MB-231
  IC50: 6.97 µM
[3]
  inhibition: 100%
[4]
  inhibition: 3.45%
DU-145
  IC50: 1.6 µM

## COc1cc([C@@H]2c3cc4c(cc3[C@@H](O[C@@H]3O[C@@H]5CO[C@@H](C)O[C@H]5[C@H](O)[C@H]3O)[C@H]3COC(=O)[C@H]23)OCO4)cc(OC)c1O [ETOPOSIDE]
HCT-116
  IC50: 9.5 µM
HeLa
  IC50: 2.36 µM
[2]
  inhibition: 26%
HL-60
  IC50: 1.28 µM
MDA-MB-231
  IC50: 1.23 µM
[3]
  inhibition: 77.1%
DU-145
  IC50: 2.19 µM

## O=c1c2ccccc2oc2cc(OCC(O)CNCCO)cc(O)c12 (centres undefined)
HCT-116
  IC50: 20 µM
[1]
  inhibition: 70.3%
HeLa
  IC50: 8.43 µM
[2]
  inhibition: 35.5%
HL-60
  IC50: 9.87 µM
MDA-MB-231
  IC50: 3.55 µM
[3]
  inhibition: 100%
[4]
  inhibition: 1.08%
DU-145
  IC50: 4.03 µM

## CCCNCC(O)COc1cc(O)c2c(=O)c3ccccc3oc2c1 (centres undefined)
HCT-116
  IC50: 23.7 µM
[1]
  inhibition: 70%
HeLa
  IC50: 11.6 µM
[2]
  inhibition: 41.2%
HL-60
  IC50: 4.15 µM
MDA-MB-231
  IC50: 4.11 µM
[3]
  inhibition: 100%
[4]
  inhibition: 0%
DU-145
  IC50: 0.76 µM
[5]
  inhibition: 28.5%
[6]
  inhibition: inactive

## O=c1c2ccccc2oc2cc(OCC(O)CSCCO)cc(O)c12 (centres undefined)
HCT-116
  IC50: 23.9 µM
[1]
  inhibition: 49.1%
HeLa
  IC50: 9.15 µM
[2]
  inhibition: 26.3%
HL-60
  IC50: 19.9 µM
MDA-MB-231
  IC50: 5.13 µM
[3]
  inhibition: 63.8%
[4]
  inhibition: 0%
DU-145
  IC50: 3.47 µM

## O=c1c2ccccc2oc2cc(OCC(O)CN(CCO)CCO)cc(O)c12 (centres undefined)
HCT-116
  IC50: 56.7 µM
[1]
  inhibition: 45.8%
HeLa
  IC50: 15.2 µM
[2]
  inhibition: 17.4%
HL-60
  IC50: 15.9 µM
MDA-MB-231
  IC50: 14.9 µM
[3]
  inhibition: 100%
[4]
  inhibition: 0%
DU-145
  IC50: 1.59 µM

## CC[C@@]1(O)C(=O)OCc2c1cc1n(c2=O)Cc2cc3ccccc3nc2-1 [CAMPTOTHECIN]
HCT-116
  IC50: 3.97 µM
MDA-MB-231
  IC50: 0.97 µM
DU-145
  IC50: 0.31 µM

## O=c1c2ccccc2oc2cc(OCC(O)COCCO)cc(O)c12 (centres undefined)
HCT-116
  IC50: 46.7 µM
[1]
  inhibition: 43.7%
HeLa
  IC50: 15.4 µM
[2]
  inhibition: 23.4%
HL-60
  IC50: 16.6 µM
MDA-MB-231
  IC50: 10.4 µM
[3]
  inhibition: 89.2%
[4]
  inhibition: 0%
DU-145
  IC50: 15.6 µM

## O=c1c2ccccc2oc2cc(OCC(O)CSCCCO)cc(O)c12 (centres undefined)
HCT-116
  IC50: > 100 µM
[1]
  inhibition: 26.1%
HeLa
  IC50: 12.3 µM
[2]
  inhibition: 17.5%
HL-60
  IC50: 27.8 µM
MDA-MB-231
  IC50: 8.4 µM
[3]
  inhibition: 68%
[4]
  inhibition: 0%
DU-145
  IC50: 40.9 µM

## CO[C@@H]1[C@@H](OC(N)=O)[C@@H](O)[C@H](Oc2ccc3c(O)c(NC(=O)c4ccc(O)c(CC=C(C)C)c4)c(=O)oc3c2C)OC1(C)C
[5]
  inhibition: 60.4%

— ChEMBL document CHEMBL1781922, “Synthesis, biological evaluation, and molecular docking study of 3-(3'-heteroatom substituted-2'-hydroxy-1'-propyloxy) xanthone analogues as novel topoisomerase IIα catalytic inhibitor” (Eur J Med Chem, 2011)
